Several values for one entry are separate records, joined by “and”; a condition that tells them apart may be missing. Equal values may be shown once. Read-outs that look alike come from different tables or passages of the source.
Legend:
FKBP12 [1] = biological target: T1, FKBP12 (Homo sapiens, UniProt P62942); assay: Spectral shift target engagement assay, binary binding to FKBP12; conditions: 40 nM FKBP12-NTA; for EC50: no MAPRE1, read-out: EC50 of the %Cbound, binary curve; for Kd: KC,1 = EC50 − [Ctot]/2
From the text: (§1) Our method of choice is the spectral shift method, which monitors binding events on the target isothermally and in equilibrium via an environment-sensitive near-infrared fluorophore. In the case of target engagement, either the proximity of the ligand towards the dye or structural changes occurring in the target as a result of binding lead to a change in the chemical environment of the fluorophore. Those changes affect the physiochemical properties of the reporter fluorophore and translate into either blue or red shifts (or peak broadening) of emission peaks upon ligand binding, which can be sensitively monitored by simultaneously recording the fluorescence at two wavelengths (i.e., at 650 nm and 670 nm). Calculating the ratio between the two fluorescence channels then allows to monitor subtle emission shifts that occur as a result of target engagement. Affinity measurements can then be performed by recording the spectral shift as a function of ligand concentration.
(§2) Binding studies through FKBP12: To monitor the binding of R,--SLF-11 by the stronger binding FKBP12 in the absence and in the presence of 10 μM MAPRE1 via %Cbound, binary and %Cbound, ternary, respectively, the concentration of reversibly NTA-labeled FKBP12 was limited to [Ctot] = 40 nM. […] In contrast to the experimental setup in the previous two binding experiments with monitoring through the weaker binding protein MAPRE1, where the applied protein concentrations were optimally chosen, this is not the case for the binding experiment through the stronger binder FKBP12. First of all, the applied excess of T with [Ttot] = 10 μM is roughly 20000-fold off of the proposed 100 times KT,1 threshold, which would correspond to 180 mM. Only under such excess conditions of T can the equilibrium of forming TL under the constraint that all ligand L is bound to T be reached to ensure that [Ltot] approaches the “ligand” concentration [TL]. […] If KC,2 is sufficiently high, the 20 nM deviation to correct for the protein concentration could be neglected. However, the resulting calculated value for KC,2 is 0.023 nM, accounting for the cooperativity α = 10,405 and KC,1 = 234 nM as derived by the MAPRE1 experiment. This value is far below the applied protein concentration of [Ctot] = 40 nM and makes it infeasible to estimate KC,2 from the EC50 of the %Cbound, ternary curve. Consequently, the EC50 shifts, meaning the apparent cooperativity, from monitoring the binding by the stronger binding protein C are diverging from the underlying intrinsic cooperativity α. […] The deviation of calculated (254 nM/24.2 nM = 10.5) and measured apparent cooperativity (254 nM/66 nM = 3.8) can be explained by a negative cooperativity induced by the His6-NTA tag of FKBP12. Studies to lower [Ctot] and identify a better position for the spectral shift tag on FKBP12 are ongoing (Figure 6a).
(§3) His-tagged FKBP12 was labeled using the His-Tag Labeling Kit RED-tris-NTA 2nd Generation (MO-L018; NanoTemper Technologies GmbH). The affinity between NTA dye and the His-tag of FKBP12 was determined as 7 nM. MAPRE1 was labeled using the Protein Labeling Kit RED-NHS 2nd Generation (MO-L011; NanoTemper Technologies GmbH). In brief, 10 µM of MAPRE1 was incubated with a 3-fold molar excess of fluorophore for 30 min. The unreacted fluorophore was removed by performing a size exclusion purification (B-column). Collecting the protein fraction yielded 1.8 µM labeled MAPRE1, with a degree of labeling of 0.8, as determined on a Nanodrop.
(§4) A 1:2 dilution series of all compounds (starting from the 10 mM stock concentration) was prepared in pure DMSO. Each concentration was diluted 25-fold with assay buffer (20 mM HEPES, pH 7.4, 150 mM NaCl, 1 mM DTT (all from Carl Roth, Karlsruhe, Germany), and 0.01% Pluronic F-127 (Sigma Aldrich, Taufkirchen, Germany)). Next, 10 µL from each of the prepared ligand dilutions was transferred into an empty well on a Dianthus Microwell Plate (DI-P001A). […]

[2] = biological target: FKBP12 in the presence of MAPRE1 (Homo sapiens, UniProt P62942+Q15691); assay: Spectral shift target engagement assay, binding to FKBP12 in the presence of 10 μM MAPRE1 (ternary)
From the text: as §1, §2, §3, §4

[3] = biological target: T2, MAPRE1 in the presence of FKBP12 (Homo sapiens, UniProt P62942+Q15691); assay: Spectral shift target engagement assay, binding to MAPRE1 in the presence of 10 μM FKBP12 (ternary); conditions: for EC50: 5 nM MAPRE1-NHS, 10 μM FKBP12, read-out: EC50 of the %Tbound, ternary curve; for Ratio [Ctot]/KC,1: [Ctot] = 10 μM FKBP12; for 100 × (EC50 %Tbound ternary − 0.5 [Ttot] − KT,2)/KT,2: difference between EC50 of the %Tbound, ternary curve and KT,2; for 100 × (EC50 %Tbound ternary − 0.5 [Ttot] − KT,2)/KT,2 / Intrinsic cooperativity α: [Ttot] = 5 nM; for Intrinsic cooperativity α: from KC,1, KT,1 and EC50 of the %Tbound, ternary curve with the mathematical model, [Ctot] = 10,000 nM; for Kd: ternary Kd, model-based ([CL] at [Ltot] = EC50), read-out: KT,2
T2 construct: His-tag (N)
From the text: as §1
(§5) Binding study through MAPRE1: MAPRE1 was labeled via lysines using an NHS-conjugated dye. The final concentration of MAPRE1NHS (referring to [Ttot]) was 5 nM. Compounds could be titrated up to a concentration of 200 μM (referring to [Ltot]). […] However more accuracy could only be achieved at higher ligand concentrations—ideally at full target saturation. However, this was experimentally infeasible due to assay conditions (i.e., the requirement of maintaining a certain DMSO concentration or avoiding solubility issues of the ligand). Although the determined KT,1 values of binding to MAPRE1 are only approximations, their relative ranking reflects the underlying differences in the affinity of the ligands L to MAPRE1. Performing these experiments in duplicates confirmed the high signal-to-noise ratio, i.e., there was no significant deviation between the two curves, indicating a high accuracy of the interpolated EC50 values. Due to the low [Ttot] = 5 nM, this value coincides with KT,1 (1.8 mM − 0.005 mM/2 ≈ 1.8 mM). […] Consequently, KT,2 corresponds to 173 nM and not 177.5 nM.
as §3
(§6) A 1:2 dilution series of all compounds (starting from the 10 mM stock concentration) was prepared in pure DMSO. Each concentration was diluted 25-fold with assay buffer (20 mM HEPES, pH 7.4, 150 mM NaCl, 1 mM DTT (all from Carl Roth, Karlsruhe, Germany), and 0.01% Pluronic F-127 (Sigma Aldrich, Taufkirchen, Germany)). Next, 10 µL from each of the prepared ligand dilutions was transferred into an empty well on a Dianthus Microwell Plate (DI-P001A). Another 10 µL of 2-fold concentrated labeled protein (either in the absence or the presence of 20 µM counter protein, both in assay buffer then yielded the final assay concentrations. Interaction measurements were prepared in duplicates for each condition. For binary interactions of compounds with MAPRE1, a final target concentration of 5 nM and a highest ligand concentration of 50 µM was prepared. For ternary interactions of compounds and MAPRE1 in the presence of 10 µM unlabeled FKBP12, the highest ligand concentration was increased to 200 µM, the highest concentration achievable while maintaining a constant 2% DMSO concentration. For all interactions measured via FKBP12, the target was prepared at a final concentration of 40 nM, supplemented with 5 nM NTA fluorophore. […]

[4] = tested on: FKBP12:R,S-SLF-X:MAPRE1 ternary complex; set-up: method as in PMID 40059881; conditions: TR-FRET proximity assay, reported earlier; cited from earlier work
MAPRE1 [5] = biological target: T3, MAPRE1 (Homo sapiens, UniProt Q15691); assay: Spectral shift target engagement assay, binary binding to MAPRE1; conditions: 5 nM MAPRE1-NHS, interpolated; for EC50: no FKBP12, read-out: EC50 of the %Tbound, binary curve; for Kd: approximation, read-out: Spectral Shift Binary MAPRE1 KT,1
T3 construct: His-tag (N)
T3 sequence (Q15691 1-268): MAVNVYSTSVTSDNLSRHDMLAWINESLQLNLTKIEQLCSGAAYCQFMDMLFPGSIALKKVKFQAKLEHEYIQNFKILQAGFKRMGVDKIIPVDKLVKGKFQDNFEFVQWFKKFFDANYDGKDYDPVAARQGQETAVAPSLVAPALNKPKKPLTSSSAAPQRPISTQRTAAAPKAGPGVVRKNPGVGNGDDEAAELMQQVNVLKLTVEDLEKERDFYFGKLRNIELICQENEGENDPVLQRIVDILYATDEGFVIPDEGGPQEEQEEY
From the text: as §1, §5, §3, §6

FKBP12 [6] = biological target: T1, FKBP12; set-up: method as in PMID 40059881; conditions: TR-FRET competitive binding assay from previous work, read-out: EC50_FKBP12, cited from earlier work
[7] = biological target: His-tagged FKBP12, labeled with RED-tris-NTA dye (UniProt P62942); assay: other fluorescence titration; spectral shift, no compound: 40 nM labeled FKBP12 vs. 10,000 nM MAPRE1
MAPRE1 [8] = biological target: T3, MAPRE1; set-up: method as in PMID 40059881; conditions: previous NMR studies; read-out: affinity for MAPRE1; cited from earlier work
[9] = 40 nM FKBP12-NTA, 10 μM MAPRE1, read-out: EC50 of the %Cbound, ternary curve (measured)
[10] = calculated with the model using α from MAPRE1 binding, read-out: calc EC50 of the %Cbound, ternary curve

T2 sequence (P62942 whole entry, one chain of several): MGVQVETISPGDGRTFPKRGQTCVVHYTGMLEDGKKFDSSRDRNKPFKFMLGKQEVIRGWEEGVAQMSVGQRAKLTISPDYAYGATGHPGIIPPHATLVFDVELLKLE
FKBP12 in the presence of MAPRE1, sequence (P62942 whole entry, one chain of several): as above
T1 sequence (P62942 whole entry, species assumed): as the sequence (P62942 whole entry, one chain of several) above
His-tagged FKBP12, labeled with RED-tris-NTA dye, sequence (P62942 whole entry): as the sequence (P62942 whole entry, one chain of several) above

Compound	EC50 (FKBP12 [1])	Kd (FKBP12 [1])	EC50 [2, 9]	EC50 [3]	Ratio [Ctot]/KC,1 [3]	100 × (EC50 %Tbound ternary − 0.5 [Ttot] − KT,2)/KT,2 [3]	Intrinsic cooperativity α [3]	Kd [3]	TR-FRET Recruitment Assay (%Amax) [4]	EC50 [2, 10]	EC50 (MAPRE1 [5])	Kd (MAPRE1 [5])	EC50 (FKBP12 [6]; listed as R,R-SLF-1d)	Kd [7]	EC50 (FKBP12 [6])	Kd (MAPRE1 [8])
C=C1CCN2C(=O)COc3cccc(c3)C(CCc3ccc(OC)c(OC)c3)OC(=O)C3CCCCN3C(=O)C(=O)C(C)(C)COC(=O)C(C)(C)NC(=O)C2C1 (stereo not drawn) [R,--SLF-10]	128 nM	108 nM	40 nM	0.377 µM	93	1.2%	5405	370 nM	135%	–	–	–	–	–	–	–
C=C1CCN2C(=O)COc3cccc(c3)C(CCc3ccc(OC)c(OC)c3)OC(=O)C3CCCCN3C(=O)C(=O)C(C)(C)COC(=O)C3(CC3)NC(=O)C2C1 (stereo not drawn) [R,--SLF-11]	254 nM	234 nM	66 nM	0.18 µM	41	2.6%	10,405	173 nM	350%	–	–	–	–	–	–	–
C=C1CCN2C(=O)COc3cccc(c3)C(CCc3ccc(OC)c(OC)c3)OC(=O)C3CCCCN3C(=O)C(=O)C(C)(C)COC(=O)C(CO)NC(=O)C2C1 (stereo not drawn) [R,S-SLF-6]	65 nM	45 nM	24 nM	0.114 µM	222	0%	4484	~111 nM and 111 nM	255%	21 nM	> 200 µM	> 200 µM	–	–	–	–
C=C1CCN2C(=O)COc3cccc(c3)C(CCc3ccc(OC)c(OC)c3)OC(=O)C3CCCCN3C(=O)C(=O)C(C)(C)COC(=O)C(C)NC(=O)C2C1 (stereo not drawn) [S,S-SLF-1d]	27 nM	7 nM	29 nM	> 1400 µM	1428 and 1429	–	No positive cooperativity	–	0%	–	> 200 µM	> 200 µM	720 nM	–	–	–
unlabeled MAPRE1 (from UniProt Q15691 1-268) (natural protein)	–	–	–	–	–	–	–	–	–	–	–	–	–	> 100 µM	–	–
C=C1CCN2C(=O)COc3cccc(c3)C(CCc3ccc(OC)c(OC)c3)OC(=O)C3CCCCN3C(=O)C(=O)C(C)(C)COC(=O)C(C(F)(F)F)NC(=O)C2C1 (stereo not drawn) [R,S-SLF-8]	129 nM	109 nM	65 nM	1.07 µM	92	1.1%	1509	1060 nM	27%	31 nM	> 200 µM	> 200 µM	–	–	–	–
C=C1CCN2C(=O)COc3cccc(c3)C(CCc3ccc(OC)c(OC)c3)OC(=O)C3CCCCN3C(=O)C(=O)C(C)(C)COC(=O)C(CC)NC(=O)C2C1 (stereo not drawn) [R,S-SLF-3]	86 nM	66 nM	49 nM	0.827 µM	152	0.8%	2200	818 nM	93%	25 nM	> 200 µM	> 200 µM	–	–	–	–
C=C1CCN2C(=O)COc3cccc(c3)C(CCc3ccc(OC)c(OC)c3)OC(=O)C3CCCCN3C(=O)C(=O)C(C)(C)COC(=O)C(CCOC)NC(=O)C2C1 (stereo not drawn) [R,S-SLF-9]	–	–	–	–	–	–	–	–	51%	–	–	–	–	–	–	–
C=C1CCN2C(=O)COc3cccc(c3)C(CCc3ccc(OC)c(OC)c3)OC(=O)C3CCCCN3C(=O)C(=O)C(C)(C)COC(=O)C(C)NC(=O)C2C1 (stereo not drawn) [R,S-SLF-1a]	41 nM	21 nM	45 nM	1.03 µM	476	0.3%	1951	1020 nM	51%	20 nM	–	–	–	–	230 nM	> 250 µM
